{"source": "patent EP2742940A1", "about": "“Salts of aza-bicyclo-di-aryl ethers for adminstration once daily, twice daily or thrice daily” (IP Gesellschaft für Management mbH, priority 2012, dated 2014)", "origin": "cited, not measured here", "key": {"[1]": {"settings": "mice; for Brain (pmoles/g)±SD) / Plasma (pmoles/ml±SD): 30 µmol/kg p.o."}, "[2]": {"system": "mice", "settings": "mouse, oral, Dose 0.3 mg/kg, familiar partner at 24 h vs time 0"}, "[3]": {"molecular_target": "T1, α4β2-nAChR (Homo sapiens, UniProt P17787+P43681)", "T1 construct": "expressed in transfected cells", "T1 sequence (P43681 29-627 limits assumed)": "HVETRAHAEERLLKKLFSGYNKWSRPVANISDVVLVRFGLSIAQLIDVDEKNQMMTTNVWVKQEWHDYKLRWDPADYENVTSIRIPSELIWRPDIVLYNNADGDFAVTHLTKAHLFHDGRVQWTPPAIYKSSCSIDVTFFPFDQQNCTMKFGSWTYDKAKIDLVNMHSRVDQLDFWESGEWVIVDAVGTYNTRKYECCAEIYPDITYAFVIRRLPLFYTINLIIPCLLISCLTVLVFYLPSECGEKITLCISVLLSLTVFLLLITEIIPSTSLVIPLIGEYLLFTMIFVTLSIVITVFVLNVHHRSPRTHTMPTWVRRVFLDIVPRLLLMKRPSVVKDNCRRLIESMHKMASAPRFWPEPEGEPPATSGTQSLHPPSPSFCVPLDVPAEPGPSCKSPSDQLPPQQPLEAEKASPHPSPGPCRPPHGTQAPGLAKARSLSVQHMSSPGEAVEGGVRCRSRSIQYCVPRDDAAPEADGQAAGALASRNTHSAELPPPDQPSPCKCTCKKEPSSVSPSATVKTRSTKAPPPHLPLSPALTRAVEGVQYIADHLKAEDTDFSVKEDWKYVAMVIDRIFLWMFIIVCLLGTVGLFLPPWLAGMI", "T1 sequence (P17787 26-502)": "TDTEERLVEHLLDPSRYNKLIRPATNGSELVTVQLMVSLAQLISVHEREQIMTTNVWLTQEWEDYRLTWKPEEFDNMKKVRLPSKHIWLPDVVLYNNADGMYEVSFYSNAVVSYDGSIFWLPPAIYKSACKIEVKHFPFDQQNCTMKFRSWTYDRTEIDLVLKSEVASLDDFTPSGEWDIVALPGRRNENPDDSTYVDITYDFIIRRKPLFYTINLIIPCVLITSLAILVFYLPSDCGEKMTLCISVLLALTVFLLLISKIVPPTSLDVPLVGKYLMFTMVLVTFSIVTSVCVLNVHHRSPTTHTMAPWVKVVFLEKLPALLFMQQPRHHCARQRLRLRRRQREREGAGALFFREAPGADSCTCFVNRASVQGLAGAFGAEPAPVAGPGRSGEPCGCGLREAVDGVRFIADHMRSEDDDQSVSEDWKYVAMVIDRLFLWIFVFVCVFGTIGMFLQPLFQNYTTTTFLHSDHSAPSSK"}, "[4]": {"design": "Initial water content / Hygroscopy @ 85%RH: unit not given here"}, "[5]": {"molecular_target": "T2, α7-nAChR (Homo sapiens, UniProt P36544)", "T2 construct": "expressed in transfected cells; host or cells: GH3 cells", "T2 sequence (P36544 23-502)": "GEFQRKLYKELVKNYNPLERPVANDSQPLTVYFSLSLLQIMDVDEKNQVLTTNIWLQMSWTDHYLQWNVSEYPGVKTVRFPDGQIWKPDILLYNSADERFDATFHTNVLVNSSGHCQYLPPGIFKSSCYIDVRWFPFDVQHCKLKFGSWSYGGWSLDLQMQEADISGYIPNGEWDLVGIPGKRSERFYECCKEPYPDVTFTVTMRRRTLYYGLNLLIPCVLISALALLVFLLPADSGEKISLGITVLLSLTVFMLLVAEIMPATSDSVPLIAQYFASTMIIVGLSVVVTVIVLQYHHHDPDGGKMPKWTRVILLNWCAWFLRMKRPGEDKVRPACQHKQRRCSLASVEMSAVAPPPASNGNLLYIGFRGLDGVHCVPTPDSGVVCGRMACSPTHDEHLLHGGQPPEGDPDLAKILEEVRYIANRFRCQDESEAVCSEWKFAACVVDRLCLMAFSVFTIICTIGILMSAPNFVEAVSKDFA", "settings": "Emax relative to epibatidine response"}, "[6]": {"settings": "male Wistar rats, oral 10 mg/kg, Mean All (n=8)"}, "[7]": {"settings": "male Wistar rats, oral 10 mg/kg, individual rats 01-08, listed as free base, 10 mg/kg"}}, "note": "Where “and” joins values, the source holds several entries; their conditions need not be identical. Equal entries are not always repeated. Where two headings read alike, the source gives them in different places.", "data": [{"compound": "Cc1ccc(-c2ccc(O[C@H]3CN4CCC3CC4)cn2)cc1", "note": "[Compound A, (R)-3-(6-(4-methylphenyl)-pyridin-3-yloxy)-1-aza-bicyclo[2.2.2]octane]", "values": [{"measurement": "Brain (pmoles/g)±SD)", "setting": "[1]; 0.25 hour", "value": "4631 ± 1717", "unit": "pmol/g"}, {"measurement": "Plasma (pmoles/ml±SD)", "setting": "[1]; 0.25 hour", "value": "573 ± 234", "unit": "pmol/mL"}, {"measurement": "Brain (pmoles/g)±SD)", "setting": "[1]; 0.5 hour", "value": "11430 ± 3441", "unit": "pmol/g"}, {"measurement": "Plasma (pmoles/ml±SD)", "setting": "[1]; 0.5 hour", "value": "559 ± 143", "unit": "pmol/mL"}, {"measurement": "Brain (pmoles/g)±SD)", "setting": "[1]; 1 hour", "value": "14948 ± 4716", "unit": "pmol/g"}, {"measurement": "Plasma (pmoles/ml±SD)", "setting": "[1]; 1 hour", "value": "322 ± 135", "unit": "pmol/mL"}, {"measurement": "Brain (pmoles/g)±SD)", "setting": "[1]; 4 hour", "value": "1272 ± 715", "unit": "pmol/g"}, {"measurement": "Plasma (pmoles/ml±SD)", "setting": "[1]; 4 hour", "value": "20 ± 16", "unit": "pmol/mL"}, {"measurement": "Brain (pmoles/g)±SD)", "setting": "[1]; 8 hour", "value": "58 ± 27", "unit": "pmol/g"}, {"measurement": "time for which brain concentration is beyond (or at least equal) to the compound's EC50 at the a7-nAChR", "setting": "[1]; acute oral dose of 30 pmol/kg (so in the source), free base form", "value": "at least 4 hours"}, {"measurement": "Reduction in time scrutinizing in % ± SEM at 24 h", "setting": "[2]", "value": "36 ± 6", "unit": "%"}, {"measurement": "EC50", "setting": "[3]", "value": "> 100", "unit": "µM"}, {"measurement": "AUClast", "setting": "[6]", "value": 200, "unit": "ng·h/mL"}, {"measurement": "AUClast/Dose (h·ng/mL)/(mg/kg)", "setting": "[6]", "value": "20.4 (h·ng/mL)/(mg/kg)"}, {"measurement": "Cmax", "setting": "[6]", "value": 112, "unit": "ng/mL"}, {"measurement": "Cmax/Dose (ng/mL)/(mg/kg)", "setting": "[6]", "value": "11.3 (ng/mL)/(mg/kg)"}, {"measurement": "Concentration in plasma, Time (h) 0.25", "setting": "[6]", "value": 100, "unit": "ng/mL"}, {"measurement": "Concentration in plasma, Time (h) 0.5", "setting": "[6]", "value": 83.5, "unit": "ng/mL"}, {"measurement": "Concentration in plasma, Time (h) 1", "setting": "[6]", "value": 52.7, "unit": "ng/mL"}, {"measurement": "Concentration in plasma, Time (h) 2", "setting": "[6]", "value": 31.2, "unit": "ng/mL"}, {"measurement": "Concentration in plasma, Time (h) 3", "setting": "[6]", "value": 16.2, "unit": "ng/mL"}, {"measurement": "Concentration in plasma, Time (h) 4", "setting": "[6]", "value": 10.3, "unit": "ng/mL"}, {"measurement": "Concentration in plasma, Time (h) 6", "setting": "[6]", "value": 437, "unit": "ng/mL"}, {"measurement": "Concentration in plasma, Time (h) 8", "setting": "[6]", "value": 354, "unit": "ng/mL"}, {"measurement": "Concentration in plasma, Time (h) 24", "setting": "[6]", "value": 0.822, "unit": "ng/mL"}, {"measurement": "AUClast", "setting": "[7]", "value": "141 ng·h/mL and 123 ng·h/mL and 238 ng·h/mL and 136 ng·h/mL and 214 ng·h/mL and 296 ng·h/mL and 234 ng·h/mL and 236 ng·h/mL"}, {"measurement": "AUClast/Dose (h·ng/mL)/(mg/kg)", "setting": "[7]", "value": "14.0 (h·ng/mL)/(mg/kg) and 12.0 (h·ng/mL)/(mg/kg) and 24.4 (h·ng/mL)/(mg/kg) and 13.5 (h·ng/mL)/(mg/kg) and 21.6 (h·ng/mL)/(mg/kg) and 29.7 (h·ng/mL)/(mg/kg) and 23.4 (h·ng/mL)/(mg/kg) and 24.5 (h·ng/mL)/(mg/kg)"}, {"measurement": "Cmax", "setting": "[7]", "value": "58.8 ng/mL and 89.6 ng/mL and 83.0 ng/mL and 94.8 ng/mL and 119 ng/mL and 188 ng/mL and 117 ng/mL and 145 ng/mL"}, {"measurement": "Cmax/Dose (ng/mL)/(mg/kg)", "setting": "[7]", "value": "5.81 (ng/mL)/(mg/kg) and 8.79 (ng/mL)/(mg/kg) and 8.50 (ng/mL)/(mg/kg) and 9.40 (ng/mL)/(mg/kg) and 12.0 (ng/mL)/(mg/kg) and 18.9 (ng/mL)/(mg/kg) and 11.7 (ng/mL)/(mg/kg) and 15.0 (ng/mL)/(mg/kg)"}, {"measurement": "Concentration in plasma, Time (h) 0.25", "setting": "[7]", "value": "58.8 ng/mL and 89.68 ng/mL and 3.0 ng/mL and 79.4 ng/mL and 105 ng/mL and 188 ng/mL and 49.0 ng/mL and 145 ng/mL"}, {"measurement": "Concentration in plasma, Time (h) 0.5", "setting": "[7]", "value": "34.8 ng/mL and 51.2 ng/mL and 64.5 ng/mL and 94.8 ng/mL and 119 ng/mL and 122 ng/mL and 117 ng/mL and 65.0 ng/mL"}, {"measurement": "Concentration in plasma, Time (h) 1", "setting": "[7]", "value": "20.1 ng/mL and 63.9 ng/mL and 36.0 ng/mL and 65.8 ng/mL and 83.6 ng/mL and 87.0 ng/mL and 33.8 ng/mL"}, {"measurement": "Concentration in plasma, Time (h) 2", "setting": "[7]", "value": "679 ng/mL and 12.6 ng/mL and 51.7 ng/mL and 16.2 ng/mL and 43.2 ng/mL and 46.9 ng/mL and 42.2 ng/mL and 29.9 ng/mL"}, {"measurement": "Concentration in plasma, Time (h) 3", "setting": "[7]", "value": "531 ng/mL and 838 ng/mL and 26.3 ng/mL and 784 ng/mL and 23.0 ng/mL and 34.4 ng/mL and 18.4 ng/mL and 620 ng/mL"}, {"measurement": "Concentration in plasma, Time (h) 4", "setting": "[7]", "value": "394 ng/mL and 3.99 ng/mL and 18.2 ng/mL and 454 ng/mL and 8.63 ng/mL and 21.1 ng/mL and 13.8 ng/mL and 8.55 ng/mL"}, {"measurement": "Concentration in plasma, Time (h) 6", "setting": "[7]", "value": "487 ng/mL and 181 ng/mL and 662 ng/mL and 127 ng/mL and 5.32 ng/mL and 438 ng/mL and 4.59 ng/mL and 606 ng/mL"}, {"measurement": "Concentration in plasma, Time (h) 8", "setting": "[7]", "value": "662 ng/mL and 0.812 ng/mL and 246 ng/mL and 1.32 ng/mL and 367 ng/mL and 154 ng/mL and 225 ng/mL and 967 ng/mL"}, {"measurement": "T1/2", "setting": "[7]", "value": "8.67 h and 3.24 h and 367 h"}, {"measurement": "Tlast", "setting": "[7]", "value": "24.0 h (3×) and 8.0 h"}, {"measurement": "AUClast", "setting": "rats, acute oral dosing of 10 mg/kg", "value": "200+-62 h ng/ml"}, {"measurement": "Hygroscopy @ 85%RH", "setting": "[4]; 85%RH", "value": "∼2"}, {"measurement": "Initial water content", "setting": "[4]; Example 7 comparison of salt forms", "value": 0.1}, {"measurement": "moisture gain", "setting": "[4]; at 93% relative humidity (RH)", "value": 2, "unit": "%"}, {"measurement": "α7-nAChR activity Efficacy compared to epibatidine (100%)", "setting": "[5]", "value": 75, "unit": "%"}]}]}
